Reference: patent US8440594B2, “Pyridothiazines having herbicidal action” (BASF SE, priority 2010, dated 2013)

Columns and labels:
Experiment in all cases: Greenhouse herbicidal activity, post-emergence treatment
Format in all cases: in vivo
[1] = tested on: Chenopodium album (CHEAL); conditions: for herbicidal activity against CHEAL: scale 0 to 100; for pest or weed control at 500 g/ha: application rate 0.5 kg/ha
Description: (§1) The seeds of the test plants were sown separately for each species. For the post-emergence treatment, the test plants were first grown to a height of 3 to 15 cm, depending on the plant habit, and only then treated with the active ingredients which had been suspended or emulsified in water. For this purpose, the test plants were either sown directly and grown in the same containers, or they were first grown separately as seedlings and transplanted into the test containers a few days prior to treatment. Depending on the species, the plants were kept at 10-25° C. or 20-35° C. The test period extended over 2 to 4 weeks. During this time, the plants were tended, and their response to the individual treatments was evaluated. Evaluation was carried out using a scale from 0 to 100. 100 means no emergence of the plants, or complete destruction of at least the aerial moieties, and 0 means no damage, or normal course of growth. A good herbicidal activity is given at values of at least 70 and a very good herbicidal activity is given at values of at least 85. The plants used in the greenhouse experiments belonged to the following species: [table]

[2] = tested on: Stellaria media (STEME); conditions: scale 0 to 100
Description: as §1

[3] = tested on: Amaranthus retroflexus (AMARE); conditions: scale 0 to 100
Description: as §1

[4] = tested on: Abutilon theophrasti (ABUTH); conditions: application rate 0.25 kg/ha, scale 0 to 100
Description: as §1

[5] = tested on: Setaria faberi (SETFA); conditions: application rate 0.5 kg/ha, scale 0 to 100
Description: as §1

[6] = tested on: Echinochloa crus-galli (ECHCG); conditions: scale 0 to 100
Description: as §1

[7] = tested on: Galium aparine (GALAP); conditions: scale 0 to 100
Description: as §1

[8] = tested on: Alopecurus myosuroides (ALOMY); conditions: scale 0 to 100
Description: as §1

[9] = Chenopodium album, application rate 0.25 kg/ha, scale 0 to 100, read-out: herbicidal activity against CHEAL
[10] = Chenopodium album, scale 0 to 100, read-out: herbicidal activity against CHEAL

## CCN1c2cccnc2C(O)=C(c2cccc(OC(F)(F)F)c2Cl)S1(=O)=O [Compound I-34]
[1]; Chenopodium album, application rate 0.233 kg/ha, scale 0 to 100, read-out: herbicidal activity against CHEAL
  pest or weed control at 233 g/ha: ≥ 85%
[2]; application rate 0.233 kg/ha
  herbicidal activity against STEME: very good herbicidal activity (a very good herbicidal activity is given at values of at least 85)

## CS(=O)(=O)c1ccc(C2=C(O)c3ncccc3N(CC(F)F)S2(=O)=O)c(Cl)c1C1=NOCC1 [Compound I-66]
[1]; application rate 0.075 kg/ha
  herbicidal activity against CHEAL: very good herbicidal activity (a very good herbicidal activity is given at values of at least 85)
[3]; application rate 0.075 kg/ha
  herbicidal activity against AMARE: very good herbicidal activity (a very good herbicidal activity is given at values of at least 85)
[2]; application rate 0.075 kg/ha
  herbicidal activity against STEME: very good herbicidal activity (a very good herbicidal activity is given at values of at least 85)

## CN1c2cccnc2C(O)=C(c2ccccc2C(F)(F)F)S1(=O)=O [Compound I-45]
[4]
  herbicidal activity against ABUTH: very good herbicidal activity (a very good herbicidal activity is given at values of at least 85)

## Cc1c(C2=C(O)c3ncccc3N(CC(F)F)S2(=O)=O)ccc2c1C(=O)C(C)(C)CS2(=O)=O [Compound I-71]
[1]; application rate 0.25 kg/ha
  herbicidal activity against CHEAL: good herbicidal activity (A good herbicidal activity is given at values of at least 70)

## CCN1c2cccnc2C(O)=C(c2ccc(F)cc2F)S1(=O)=O [Compound I-63]
[1]; [9]
  pest or weed control at 250 g/ha: ≥ 85%

## CON=C1CCS(=O)(=O)c2c1ccc(C1=C(O)c3ncccc3N(CC(F)F)S1(=O)=O)c2C [Compound I-22]
[5]
  herbicidal activity against SETFA: good herbicidal activity (A good herbicidal activity is given at values of at least 70)

## O=S1(=O)C(c2ccccc2Cl)=C(O)c2ncccc2N1CC(F)F [Compound I-5]
[6]; application rate 0.5 kg/ha
  herbicidal activity against ECHCG: good herbicidal activity (A good herbicidal activity is given at values of at least 70)

## CCN1c2cccnc2C(O)=C(c2ccc(Cl)c(C)c2Cl)S1(=O)=O [Compound I-59]
[1]; Chenopodium album, application rate 0.154 kg/ha, scale 0 to 100, read-out: herbicidal activity against CHEAL
  pest or weed control at 154 g/ha: ≥ 85%

## O=S1(=O)C(c2ccc(F)cc2F)=C(O)c2ncccc2N1CC(F)F [Compound I-62]
[1]; application rate 0.0625 kg/ha
  herbicidal activity against CHEAL: very good herbicidal activity (a very good herbicidal activity is given at values of at least 85)
[7]; application rate 0.0625 kg/ha
  herbicidal activity against GALAP: good herbicidal activity (A good herbicidal activity is given at values of at least 70)

## COc1c(S(C)(=O)=O)ccc(C2=C(O)c3ncccc3N(CC(C)C)S2(=O)=O)c1C [Compound I-33]
[1]; application rate 0.345 kg/ha
  herbicidal activity against CHEAL: very good herbicidal activity (a very good herbicidal activity is given at values of at least 85)
[6]; application rate 0.345 kg/ha
  herbicidal activity against ECHCG: very good herbicidal activity (a very good herbicidal activity is given at values of at least 85)

## Cc1c(C2=C(O)c3ncccc3N(CC(F)F)S2(=O)=O)ccc2c1S(=O)(=O)CCC2(C)C [Compound I-10]
[1]; application rate 0.041 kg/ha
  herbicidal activity against CHEAL: very good herbicidal activity (a very good herbicidal activity is given at values of at least 85)
[3]; application rate 0.041 kg/ha
  herbicidal activity against AMARE: very good herbicidal activity (a very good herbicidal activity is given at values of at least 85)

## CCOc1c(S(=O)(=O)CC)ccc(C2=C(O)c3ncccc3N(CC(C)C)S2(=O)=O)c1Cl [Compound I-29]
[3]; application rate 0.154 kg/ha
  herbicidal activity against AMARE: very good herbicidal activity (a very good herbicidal activity is given at values of at least 85)

## CCCCN1c2cccnc2C(O)=C(c2ccc(S(C)(=O)=O)c(OC)c2C)S1(=O)=O [Compound I-32]
[1]; Chenopodium album, application rate 0.4 kg/ha, scale 0 to 100, read-out: herbicidal activity against CHEAL
  pest or weed control at 400 g/ha: ≥ 85%

## CC(C)N1c2cccnc2C(O)=C(c2ccccc2Cl)S1(=O)=O [Compound I-51]
[1]; [10]
  pest or weed control at 500 g/ha: ≥ 85%

## CN1c2cccnc2C(O)=C(c2ccc(Cl)cc2Cl)S1(=O)=O [Compound I-39]
[1]; [10]
  pest or weed control at 500 g/ha: ≥ 85%

## CCN1c2cccnc2C(O)=C(c2ccc(Cl)cc2Cl)S1(=O)=O [Compound I-40]
[1]; [10]
  pest or weed control at 500 g/ha: ≥ 85%

## CCCCN1c2cccnc2C(O)=C(c2ccc(Cl)cc2Cl)S1(=O)=O [Compound I-42]
[1]; [10]
  pest or weed control at 500 g/ha: ≥ 85%

## CCN1c2cccnc2C(O)=C(c2ccc(Br)cc2Cl)S1(=O)=O [Compound I-81]
[1]; [9]
  pest or weed control at 250 g/ha: ≥ 85%

## O=S1(=O)C(c2cc(Cl)ccc2Cl)=C(O)c2ncccc2N1CC(F)F [Compound I-7]
[8]; application rate 0.5 kg/ha
  herbicidal activity against ALOMY: very good herbicidal activity (a very good herbicidal activity is given at values of at least 85)
[7]; application rate 0.5 kg/ha
  herbicidal activity against GALAP: good herbicidal activity (A good herbicidal activity is given at values of at least 70)

## CN1c2cccnc2C(O)=C(c2ccccc2Cl)S1(=O)=O [Compound I-44]
[1]; Chenopodium album, application rate 0.1 kg/ha, scale 0 to 100, read-out: herbicidal activity against CHEAL
  pest or weed control at 100 g/ha: ≥ 85%
[6]; application rate 0.1 kg/ha
  herbicidal activity against ECHCG: very good herbicidal activity (a very good herbicidal activity is given at values of at least 85)

## O=S1(=O)C(c2cc(F)ccc2C(F)(F)F)=C(O)c2ncccc2N1CC(F)F [Compound I-3]
[6]; application rate 0.5 kg/ha
  herbicidal activity against ECHCG: very good herbicidal activity (a very good herbicidal activity is given at values of at least 85)

## O=S1(=O)C(c2cc(Cl)cc(N3CCOCC3)c2C(F)(F)F)=C(O)c2ncccc2N1CC(F)F [Compound I-56, 3-[5-chloro-3-morpholino-2-(trifluoromethyl)phenyl]-1-(2,2-difluoroethyl)-2,2-dioxo-pyrido[3,2-c]thiazin-4-ol]
[3]; application rate 0.25 kg/ha
  herbicidal activity against AMARE: good herbicidal activity (A good herbicidal activity is given at values of at least 70)

## COC(CN1c2cccnc2C(O)=C(c2ccccc2C(F)(F)F)S1(=O)=O)OC [Compound I-82]
[8]; application rate 0.25 kg/ha
  herbicidal activity against ALOMY: very good herbicidal activity (a very good herbicidal activity is given at values of at least 85)

## CC1=NOC(c2c(S(C)(=O)=O)ccc(C3=C(O)c4ncccc4N(CC(F)F)S3(=O)=O)c2C)C1 (stereo not shown) [Compound I-8]
[1]; application rate 0.447 kg/ha
  herbicidal activity against CHEAL: very good herbicidal activity (a very good herbicidal activity is given at values of at least 85)
[3]; application rate 0.447 kg/ha
  herbicidal activity against AMARE: very good herbicidal activity (a very good herbicidal activity is given at values of at least 85)

## CCCN1c2cccnc2C(O)=C(c2ccc(Cl)cc2Cl)S1(=O)=O [Compound I-41]
[1]; [10]
  pest or weed control at 500 g/ha: ≥ 85%
